Measured values taken from patent US20250228851A1, “ALLOSTERIC INHIBITOR COMPOUNDS FOR OVERCOMING CANCER RESISTANCE” (priority 2021, published 2025).
“Also recorded” adds a separate entry of the source.

Assays:
HP (Ph− ALL PD-LTC) = test: XTT cell viability, PD-LTC HP; details: increasing concentration up to 10 μM
Experimental: (§6) Each tested compound was dissolved in a suitable vehicle and cells were exposed to successive solutions containing an increasing concentration of each test compound, as well as a control sample containing no test compound. A range of 5 (or 10) concentrations were tested in triplicates starting from 1 μM. The potency of each test compound was assessed by cell viability using an XTT assay [53, 54]. The ratio of cell viability (CV %) was determined by calculating the average of each triplicate, normalizing to the average in case to the average of the control sample.
(§7) Standard deviation (STD) was calculated for each triplicate and the curve logarithmic equation was calculated for each curve.
(§8) Each compound was assayed against a panel of Patient-Derived Long-Term cultures (PD-LTCs) including: • 8. […] PH: primary Patient-Derived Long-Term Cultures (PD-LTCs) from Ph^+ ALL patients Ph+ ALL (p185-BCR-ABL) that are fully responsive to TKIs ˜30% of adult ALL patients harbor the Ph chromosome, that represent a high-risk group of ALL. • 10. […] HP: PD-LTCs derived from Ph− ALL patient (not harboring the Ph chromosome). HP was used as negative control. • 12. VM: derived from a Ph+ ALL patient harboring p210-BCR-ABL. • 13.
(§9) The dose-response curves for single agent treatments were generated in Prism 9 (GraphPad). Curve fitting was performed by nonlinear regression using the log(inhibitor) vs. normalized response—Variable slope model.

[1] = test system: Ba/F3 cells expressing p185-BCR-ABL; test: XTT cell viability / proliferation, Ba/F3 expressing p185-BCR-ABL; assay type: cell-based, murine; details: p185-BCR-ABL-Ba/F3, increasing concentration up to 10 μM
Experimental: (§1) • 1. Ba/F3 cells were obtained from the German Collection of Microorganisms and Cell Cultures (DSMZ, Braunschweig, Germany) and maintained in RPMI 1640 medium supplemented with 10% fetal calf serum (Invitrogen) containing 10 ng/ml of interleukin-3 (Cell Concepts, Umkirch, Germany). Ecotropic Phoenix cells and Rat-1 cells were cultured in Dulbecco's modified Eagle's medium supplemented with 10% fetal calf serum. GNF-2 (Sigma-Adrich, Steinheim, Germany) was dissolved in dimethyl sulfoxide and added at a final concentration of […]. Cell growth was assessed by dye exclusion using Trypan blue. Proliferation was assessed using the XTT proliferation kit (Roche, Mannheim, Germany), according to the manufacturer's instructions. • 2. Ba/F3: IL-3 dependent lymphatic murine pro B cell line. Ba/F3 cells expressing either p185-BCR-ABL1 (p185-BCR-ABL-Ba/F3) or p210-BCR-ABL (p210-BCR-ABL-Ba/F3). p185-BCR-ABL1 (activated kinases substitute for the IL-3 signaling and therefore render the cells IL3 independent. Ba/F3 cells expressing either p185-BCR-ABL (p185-Ba/F3) or p210-BCR-ABL (p210-Ba/F3). Ba/F3 cells obtained from the German Collection of Microorganisms and Cell Cultures (DSMZ, Braunschweig, Germany). • 3. Mutant transduced Ba/F3 cells (T315I-p185-BCR-ABL1 or T315I-p210-BCR-ABL1): Ba/F3 cells expressing either the mutated forms T315I-p185-BCR-ABL1 or T315I-p210-BCR-ABL1. • 4. WT-Sup-B15: A Ph+ ALL cell line harboring the p185-BCR-ABL. Sup-B15: established from the bone marrow of a child with acute lymphoblastic leukemia (B cell precursor ALL) in second relapse in 1984; described in the literature to carry the ALL-variant (m-BCR) of the BCR-ABL1 fusion gene (e1-a2) correct, because it results in the p185-BCR-ABL version. • 5. […] V617FJAK2 HEL: (Human erythroleukemia) is a growth factor independent erythroleukemic cell line established from the bone marrow of a patient with relapsed Hodgkin disease after autologous bone marrow transplantation (Martin P & Papayannopoulou T: Science 1982; 216:1233-1235). HEL cells display a block in differentiation at the level of common erythroid-megakaryocytic progenitor and have been commonly used as a model to study erythroid and megakaryocytic differentiation. • 7. Jurkat: an immortalized human T lymphocyte first derived from the peripheral blood of a child suffering from T cell leukemia. Jurkat cells are used to study acute T cell leukemia, T cell signaling, and the expression of various chemokine receptors susceptible to viral entry, particularly HIV.
(§2) FIGS. 1A and 1B: Effects of Compound 16 on Ba/F3 cells expressing either p185-BCR-ABL or T315I-p185-BCR-ABL. Cells were exposed to increasing concentration of Compound 16 [empty vehicle (0.0 μM+IL3), 2.5, 5.0 and 10.0 μM]. […] Cell viability (CV) was assessed using the XTT method as described in the experimental part. The means±SD of triplicates from one representative experiment out of three performed are given.
(§3) FIGS. 7A-C: Effects of Compound 16 on of Ba/F3 cells expressing WT-p185-BCR-ABL (FIG. 7A) and the mutant gatekeeper T315I-p185-BCR-ABL (FIG. 7B) by Compound 16. Cells were exposed to increasing concentrations of Compound 16.

[2] = test system: Ba/F3 cells expressing T315I-p185-BCR-ABL; test: XTT cell viability / proliferation, Ba/F3 expressing T315I-p185-BCR-ABL; assay type: cell-based, murine; details: for antiproliferative response (in words): T315I-p185-BCR-ABL-Ba/F3, increasing concentration up to 10 μM
Experimental: as §1, §2, §3

[3] = test system: PINCO transfected Ba/F3 cells; test: XTT cell viability, Ba/F3 transduced with empty vector (PINCO); assay type: cell-based, murine; details: increasing concentration up to 10 μM
Experimental: (§4) • 1. Ba/F3 cells were obtained from the German Collection of Microorganisms and Cell Cultures (DSMZ, Braunschweig, Germany) and maintained in RPMI 1640 medium supplemented with 10% fetal calf serum (Invitrogen) containing 10 ng/ml of interleukin-3 (Cell Concepts, Umkirch, Germany). Ecotropic Phoenix cells and Rat-1 cells were cultured in Dulbecco's modified Eagle's medium supplemented with 10% fetal calf serum. GNF-2 (Sigma-Adrich, Steinheim, Germany) was dissolved in dimethyl sulfoxide and added at a final concentration of […]. Cell growth was assessed by dye exclusion using Trypan blue. Proliferation was assessed using the XTT proliferation kit (Roche, Mannheim, Germany), according to the manufacturer's instructions. • 2. Ba/F3: IL-3 dependent lymphatic murine pro B cell line. Ba/F3 cells expressing either p185-BCR-ABL1 (p185-BCR-ABL-Ba/F3) or p210-BCR-ABL (p210-BCR-ABL-Ba/F3). p185-BCR-ABL1 (activated kinases substitute for the IL-3 signaling and therefore render the cells IL3 independent. Ba/F3 cells expressing either p185-BCR-ABL (p185-Ba/F3) or p210-BCR-ABL (p210-Ba/F3). Ba/F3 cells obtained from the German Collection of Microorganisms and Cell Cultures (DSMZ, Braunschweig, Germany). • 3. Mutant transduced Ba/F3 cells (T315I-p185-BCR-ABL1 or T315I-p210-BCR-ABL1): Ba/F3 cells expressing either the mutated forms T315I-p185-BCR-ABL1 or T315I-p210-BCR-ABL1. • 4. WT-Sup-B15: A Ph+ ALL cell line harboring the p185-BCR-ABL. Sup-B15: established from the bone marrow of a child with acute lymphoblastic leukemia (B cell precursor ALL) in second relapse in 1984; described in the literature to carry the ALL-variant (m-BCR) of the BCR-ABL1 fusion gene (e1-a2) correct, because it results in the p185-BCR-ABL version. • 5. […]
FIG. 11: Antiproliferative effect of Compound 16 on PINCO transfected Ba/F3 cells. […] Proliferation status was determined by the metabolic activity of cells given by the reduction rate of XTT to formazan. […]

Jurkat = test: XTT cell viability, Jurkat; assay type: cell-based, human; details: increasing concentration up to 10 μM
Experimental: as §4
FIG. 2: Effect of Compound 16 on leukemia cell lines (Jurkat, Sup-B15 and BV173). Cell viablility (CV) was determined following incubation of the 1 m cells/ml of each cell line with increasing concentration of the Compound 16 [empty vehicle (0.0 μM+IL3), 2.5, 5.0 and 10.0 μM]. CV was measured by the XTT method. […]

Sup-B15 (p185-BCR-ABL) = test: XTT cell viability, Sup-B15 (WT-Sup-B15); assay type: cell-based, human
Experimental: as §1
FIG. 2: Effect of Compound 16 on leukemia cell lines (Jurkat, Sup-B15 and BV173). Cell viablility (CV) was determined following incubation of the 1 m cells/ml of each cell line with increasing concentration of the Compound 16 [empty vehicle (0.0 μM+IL3), 2.5, 5.0 and 10.0 μM]. CV was measured by the XTT method. The means±SD of triplicates from one representative experiment out of three performed are given.

RT-Sup-B15 = test: XTT cell viability, RT-Sup-B15; assay type: cell-based, human; details: RT-Sup-B15, increasing concentration up to 10 μM
Experimental: (§5) • 1. Ba/F3 cells were obtained from the German Collection of Microorganisms and Cell Cultures (DSMZ, Braunschweig, Germany) and maintained in RPMI 1640 medium supplemented with 10% fetal calf serum (Invitrogen) containing 10 ng/ml of interleukin-3 (Cell Concepts, Umkirch, Germany). Ecotropic Phoenix cells and Rat-1 cells were cultured in Dulbecco's modified Eagle's medium supplemented with 10% fetal calf serum. GNF-2 (Sigma-Adrich, Steinheim, Germany) was dissolved in dimethyl sulfoxide and added at a final concentration of […]. Cell growth was assessed by dye exclusion using Trypan blue. Proliferation was assessed using the XTT proliferation kit (Roche, Mannheim, Germany), according to the manufacturer's instructions. • 2. Ba/F3: IL-3 dependent lymphatic murine pro B cell line. […]

BV (Ph+ ALL PD-LTC) = test: XTT cell viability, PD-LTC BV; assay type: cell-based, human; details: for antiproliferative response (in words): increasing concentration 0.5-10 μM; for induction of cell proliferation at high concentration (in words): concentration >5 μM (10 μM)
[4] = test system: KÖ (Ph+T315I-p185-BCR-ABL ALL); test: XTT cell viability, PD-LTC KÖ; assay type: cell-based, human
Ph− V617FJAK2 HEL = test: XTT cell viability, HEL; assay type: cell-based, human; details: increasing concentration up to 10 μM
Experimental: as §5

PH (Ph+ ALL PD-LTC) = test: XTT cell viability, PD-LTC PH; details: for antiproliferative response (in words): increasing concentration 0.5-10 μM
Experimental: as §6, §7, §8, §9

[5] = test system: SATA5, pSTAT5, JAK2 and pJAK2; test: Western blotting of HEL cells; assay type: cell-based, human; details: 500 nM
Experimental: FIG. 40: Western blot analysis of HEL cells using antibodies directed against the indicated proteins. Cells were exposed to increasing concentration of Compound 34 [vehicle (0.0 nM), 50, 100.0, 500.0, 1000.0, and 5000.0 nM].
Cells were harvested at the corresponding time intervals (0, 3, 6, 12, and 14 hours) on HELL cells. Anti-STAT5, anti-pSTAT5, anti-JAK2 and anti-pJAK2 antibodies were used.

Compound	antiproliferative response (in words) (HP (Ph− ALL PD-LTC))	antiproliferative response (in words) [1]	antiproliferative response (in words) [2]	antiproliferative response (in words) (BV (Ph+ ALL PD-LTC))	antiproliferative response (in words) (PH (Ph+ ALL PD-LTC))	further results
O=C(Nc1ccc(OC(F)(F)Cl)cc1)c1cnc(N2CC[C@@H](O)C2)c(-c2cc[nH]n2)c1 [ABL001, Asciminib, reference compound]	irresponsiveness	–	–	–	–	–
CS(=O)(=O)N1CCN(c2cc(Nc3ccc(OC(F)(F)F)cc3)ncn2)CC1 [Compound 30]	–	increased sensitivity	concentration dependent inhibition; also recorded: weakly responsive	increased sensitivity	increased sensitivity; also recorded: PH>BV	cell viability (CV) at plateau ([2]; 4 and 10.0 μM): ~16%; antiproliferative response (in words) [3]: weakly responsive; antiproliferative response (in words) (Jurkat): irresponsive; antiproliferative response (in words) (Sup-B15 (p185-BCR-ABL); Sup-B15 / WT-Sup-B15, increasing concentration up to 10 μM): responsive; also recorded: twice as sensitive; also recorded: increased sensitivity; antiproliferative response (in words) (RT-Sup-B15): irresponsive; also recorded: weakly responsive; antiproliferative response (in words) ([4]; increasing concentration up to 10 μM): weak inhibition is noticed at concentration that ranges between 2.5-10 μM; also recorded: negligible at low concentrations (<1 μM); antiproliferative response (in words) (Ph− V617FJAK2 HEL): weakly responsive; also recorded: negligible at low concentrations (<1 μM); also recorded: weak inhibition is noticed at concentration that ranges between 2.5-10 μM
Cc1ccc(S(=O)(=O)N2CCN(c3cc(Nc4ccc(OC(F)(F)F)cc4)ncn3)CC2)cc1 [Compound 31]	negligible	negligible	negligible	significantly inhibited; also recorded: increased sensitivity; also recorded: enhanced activity	significantly inhibited; also recorded: increased sensitivity; also recorded: enhanced activity	induction of cell proliferation at high concentration (in words) (BV (Ph+ ALL PD-LTC)): induction of cell proliferation; also recorded: growth induction; induction of cell proliferation at high concentration (in words) (BV (Ph+ ALL PD-LTC); listed as −31): growth induction; antiproliferative response (in words) (Ph− V617FJAK2 HEL): negligible; induction of cell proliferation at high concentration (in words) (PH (Ph+ ALL PD-LTC); concentration >5 μM (10 μM)): induction of cell proliferation; also recorded: growth induction
COc1ccc(C(=O)N2CCN(c3cc(Nc4ccc(OC(F)(F)F)cc4)ncn3)CC2)c(OC)c1 [Compound 32]	–	–	–	enhanced activity; also recorded: milder	enhanced activity; also recorded: good inhibitory effect	–
O=C(c1cccc(-c2cc(Nc3ccc(OC(F)(F)F)cc3)ncn2)c1)N1CCN(c2ccc(C(F)(F)F)cn2)CC1 [Compound 34]	highly resistant; also recorded: negligible; also recorded: some response at higher doses	most sensitive	least responsive; also recorded: irresponsive	more effective in inhibiting the proliferation BV than KÖ	most responsive; also recorded: twice as sensitive	antiproliferative response (in words) [3]: intermediately responsive; also recorded: next in response; antiproliferative response (in words) (Jurkat): irresponsive; also recorded: negligible; IC50 (Sup-B15 (p185-BCR-ABL); WT-Sup-B15, Table 1): 28600 nM; antiproliferative response (in words) (RT-Sup-B15): irresponsive; also recorded: negligible; IC50 (BV (Ph+ ALL PD-LTC); Table 1): 450 nM; IC50 ([4]; Table 1): 2370 nM; level of expression of SATA5, pSTAT5, JAK2 and pJAK2 (in words) [5]: reduction in the level of expression; IC50 (PH (Ph+ ALL PD-LTC); Table 1): 130 nM
Cc1ccc(NC(=O)c2ccc(CN3CCN(C)CC3)cc2)cc1Nc1nccc(-c2cccnc2)n1 [Imatinib, reference compound]	irresponsiveness	–	–	–	–	–
Cc1cn(-c2cc(NC(=O)c3ccc(C)c(Nc4nccc(-c5cccnc5)n4)c3)cc(C(F)(F)F)c2)cn1 [Nilotinib, reference compound]	irresponsiveness	–	–	–	–	–
